In patent publication US6326402A, “Methods for treating viral infections using a compound capable of inhibiting microtubules” (Octamer, Inc., priority 1998, dated 2001):
“Also recorded” adds a separate entry of the source. Read-outs that look alike come from different tables or passages of the source.

Key:
[1] = tested on: uptake of iodine into the thyroid; settings: cited from earlier work
[2] = tested on: non-malignant mouse pituitary adenoma; settings: in vivo; cited from earlier work
tadpole metamorphosis = settings: as determined by tadpole metamorphosis; cited from earlier work
viral replication = assay: Anti-viral activity of DIME analogues and homologues (cellular assays and in vivo); assay type: cell-based
tubulin [3] = settings: cited from earlier work
human cancer cells = settings: relative to DIME; U.S. Ser. Nos. 08/655,267 and 08/833,272; cited from earlier work
[4] = compared with vincristine; cited from earlier work
HIV harboring cells = assay type: in vitro ADME, human
tumor cells = settings: cited from earlier work
tubulin [5] = settings: cited from earlier work; remark: listed apart in the source
[6] = Serum half-life and bioavailability of 14C-labeled DIME in mice; assay type: in vivo
Description: Mice were orally dosed with 126 mg/kg 14C-labeled DIME (Compound 1). After dosing, blood sampling times were 15 and 30 minutes and 1, 2, 4, 6, 8 and 24 hours. Aliquots (50 μL) of blood were assayed in a liquid scintillation counter and data expressed as microgram-equivalents per mL.
The blood level data were analyzed by the RSTRIP method (Micromath, Salt Lake City, Utah). Parallel groups of mice were dosed intravenously with 24.5 mg/kg 14C-labeled DIME and blood sampling times were 10, 20 and 30 minutes and 1, 2, 4, 6 and 8 hours.

[7] = tested on: MDA-MB-231 (human mammary cancer) cells; assay: MDA-MB-231 xenografts in nude mice, tumor volume; assay type: in vivo, human tumor xenograft in nude mice
Description: The ability of human tumors to grow as xenografts in athymic mice (e.g., nude mice) provides a useful in vivo model for studying the biological response to therapies for human tumors. Since the first successful xenotransplantation of human tumors into athymic mice ([…] et al., 1969, Acta Pathol. Microbial. Scand. 77:758-760), many different human tumor cell lines (e.g., mammary, lung, genitourinary, gastrointestinal, head and neck, glioblastoma, bone and malignant melanomas) have been successfully transplanted and grown into nude mice. Human mammary tumor cell lines, including MCF-7, ZR75-1 and MDA-MB-23 1, have been established as subcutaneous grafts in nude mice (Warri et al., 1991, Intl. J. Cancer 49:616-23; Ozzello et al., 1980, Eur. J. Cancer 16:553-559; Osbourne et al., 1985, Cancer Res. 45:584-590; Siebert et al., 1983, Cancer Res. 43:2223-2239). […] Experimental Protocol MDA-MB-231 (human mammary cancer) cells were obtained from American Type Culture Collection (Rockville, Md.) and maintained in the recommended growth media. Twenty nude mice were each inoculated subcutaneously with MDA-MB-231 cells (10^6 cells/100 […]). To one group of ten mice, DIME was administered by gavage (250 mg/kg, 10 mL/kg in corn oil) once […] per day, 5 days per week, for a total of 32 days. The other (control) group of ten mice was given administered vehicle only according to the same dosing schedule. Tumors were measured twice weekly using a Vernier caliper, and the mean tumor volume was determined at each time point. Comparisons between groups were made using an unpaired, two-tailed t-test and the results were analyzed using analysis of variance.

apoptosis = settings: disruption of microtubules; cited from earlier work
[8] = tested on: HIV-1 (strains HIV-, 89.6 and HIV-1 SF162); assay: HIV replication in stimulated human lymphocytes (reverse transcriptase assay); assay type: cell-based, HIV-1 in human lymphocytes
Description: Inhibition of HIV replication in human white cells by DIME
Lymphocytes were obtained from the Sacramento Blood Bank. After stimulation of cells with phytohaemagglutinine for 3 days, cells were exposed to varying concentrations of DIME (see abscissa of FIG. 1) and incubated for 2 hours at 37° C., 5% CO2, followed by the addition of 3.2×10^5 TCID50 HIV-1 viruses (strains HIV-, 89.6 and HIV-1 SF162). Viral growth was allowed to proceed for 3 days.
(§1) Nocodazole is a well known antitubulin drug. It is highly toxic. Thus, we established a concentration that is relatively harmless to human white cells, i.e. between 0.1 and 1 μM. At […] , nocodazole depressed HIV production by 40% thereby simulating the action of DIME. However DIME is completely nontoxic up to about 320 μM.

[9] = Toxicity, daily oral dosing of nude mice; assay type: in vivo; settings: 1 g/kg daily, 12-15 days
Description: Ten nude mice were administered a daily oral dose of ^14 C-labeled DIME (Compound 1) (1.0 g/kg, 0.1 ml, in corn oil) for a period of 12-15 days.

[10] = Toxicity to human white cells; assay type: cell-based; settings: white blood cells
Description: as §1

[11] = tested on: Ras and apoptosis-regulating kinases (ASK1), JNK pathway, MEKK1/SEK1 and c-Jun/AP-1; settings: cited from earlier work
human white cells = settings: cited from earlier work

NC(Cc1cc(I)c(Oc2cc(I)c(O)c(I)c2)c(I)c1)C(=O)O (stereo not shown) [thyroxine, reference compound]
suppression of iodine uptake by the thyroid ([1]; rat, in vivo): suppresses uptake of iodine by the thyroid
growth inhibition of non-malignant mouse pituitary tumor [2]: depress growth
metabolic or cell differentiating activity (tadpole metamorphosis): induces cell differentiation

CCOC(=O)c1cc(I)c(Oc2ccc(OC)cc2)c(I)c1 [Compound 5, Ethyl 3,5-diiodo-4-(4'-methoxyphenoxy)benzoate]
anti-viral activity (viral replication): inactive

CC[C@]1(O)C[C@H]2CN(CCc3c([nH]c4ccccc34)[C@@](C(=O)OC)(c3cc4c(cc3OC)N(C=O)[C@H]3[C@@](O)(C(=O)OC)[C@H](OC(C)=O)[C@]5(CC)C=CCN6CC[C@]43[C@@H]65)C2)C1 [vincristine, reference compound]
KD vs tubulin relative to DIME (tubulin [3]; may be, relative to DIME): thousand-fold higher

COC(=O)c1cc(I)c(Oc2ccc(OC)cc2Cl)c(I)c1 [Compound 14, Methyl 3,5-diiodo-4-(2'-chloro-4'methoxyphenoxy)benzoate]
maximal inhibitory action on the growth of human cancer cells as compared to DIME (human cancer cells): about 25%

CCCOc1ccc(Oc2c(I)cc(C(=O)OC)cc2I)cc1 [Compound 3, Methyl 3,5-diiodo-4-(4'-n-propoxyphenoxy)benzoate]
anti-viral activity (viral replication): inactive

CC[C@]1(O)C[C@@H]2CN(CCc3c([nH]c4ccccc34)[C@@](C(=O)OC)(c3cc4c(cc3OC)N(C)[C@H]3[C@@](O)(C(N)=O)[C@H](O)[C@]5(CC)C=CCN6CC[C@]43[C@@H]65)C2)C1 [vindesine, 4-desacetyl vinblastine C-3 carboxamide]
neurotoxicity in humans [4]: less neurotoxicity than does vincristine

COC(=O)c1cc(I)c(Oc2ccc(OC)cc2)c(I)c1 [DIME, Methyl 3,5-diiodo-4-(4'-methoxyphenoxy)benzoate]
DIME uptake by HIV infected cells (HIV harboring cells): significant drug uptake
permeation into tumor cells in vivo (tumor cells): selective permeation into tumor cells in vivo
inhibition of uptake of iodine into the thyroid ([1]; rats, as compared to thyroxine): 15%
growth inhibition of non-malignant mouse pituitary tumor [2]: no inhibitory activity
anti-viral activity (viral replication): highly active
inhibition of tubulin polymerization (tubulin [5]): inhibition of tubulin polymerization
binding to microtubules (tubulin [3]; shown experimentally): binding to cellular microtubules
i.v. serum half-life (t1/2) ([6]; i.v., 24.5 mg/kg): about 4 hours
area under the blood concentration-time curve, intravenous ([6]; intravenous, 24.5 mg/kg, mice, 14C-labeled DIME): 156 µg·h/mL
half-life (t1/2) ([6]; mice, 14C-labeled DIME, 126 mg/kg oral, 24.5 mg/kg i.v.): 2 to 2.5 h
area under the blood concentration-time curve, oral ([6]; oral, 126 mg/kg, mice, 14C-labeled DIME): 665.28 µg·h/mL
half-life in serum ([6]; serum, route and species not stated): about 4 hours
MDA-MB-231 tumor volume Day 14 ± SEM ([7]; 250 mg/kg by gavage, 5 days per week, control 284.6 ± 42.0, p = 0.06): 172.0 ± 34.3
MDA-MB-231 tumor volume Day 21 ± SEM ([7]; 250 mg/kg by gavage, 5 days per week, control 622.2 ± 58.1, p = 0.02): 285.7 ± 62.4
MDA-MB-231 tumor volume Day 28 ± SEM ([7]; 250 mg/kg by gavage, 5 days per week, control 979.0 ± 154, p = 0.01): 430 ± 85.6
MDA-MB-231 tumor volume Day 32 ± SEM ([7]; 250 mg/kg by gavage, 5 days per week, control 1176.6 ± 222.4, p = 0.01): 543.8
% decrease of tumor volume, Day 14 ([7]; 250 mg/kg, vs vehicle control): 40%
% decrease of tumor volume, Day 21 ([7]; 250 mg/kg, vs vehicle control): 54%
% decrease of tumor volume, Day 28 ([7]; 250 mg/kg, vs vehicle control): 56%
% decrease of tumor volume, Day 32 ([7]; 250 mg/kg, vs vehicle control): 54%
reduction of malignant tumor growth ([7]; non-optimized treatment regimen): significant reduction of malignant tumor growth
DIME uptake by normal or stimulated white cells (human lymphocytes): do not take up significant quantities
induction of apoptosis (apoptosis): induces apoptosis
metabolic or cell differentiating activity (tadpole metamorphosis): no significant metabolic or cell differentiating activity
reverse transcriptase activity in cell supernatant as a function of DIME concentration (FIG. 1) ([8]; cpm, 2 h preincubation, viral growth 3 days): progressively diminishes as a function of DIME concentration; also recorded: decreases with increased "DIME" concentration
inhibition of HIV replication in human lymphocytes, concentration compared with microtubule disruption in tumor cells ([8]; human lymphocytes): at the same concentration as it disrupts microtubules in tumor cells
ill effects on daily oral dosing [9]: No ill effects
MNTC ([10]; up to about, read-out: concentration up to which completely nontoxic): ~320 µM

CC(=O)O[C@H]1C(=O)[C@@]2(C)[C@H]([C@H](OC(=O)c3ccccc3)[C@]3(O)C[C@H](OC(=O)[C@H](O)[C@@H](NC(=O)c4ccccc4)c4ccccc4)C(C)=C1C3(C)C)[C@]1(OC(C)=O)CO[C@@H]1C[C@@H]2O [taxol]
activation of kinase pathways [11]: can activate both Ras and apoptosis-regulating kinases (ASK1), pathways

COC(=O)Nc1nc2ccc(C(=O)c3cccs3)cc2[nH]1 [Nocodazole, reference compound]
toxicity (general statement) (human white cells): highly toxic
inhibition at 0.1 µM ([8]; Human immunodeficiency virus 1, Lymphocyte, 72 h, read-out: depression of HIV production): 40%
MNTC [10]: 0.1 to 1 µM
